Experimental data taken from patent publication US20170190705A1, “Compositions and Methods for Inhibiting BMP” (THE BRIGHAM AND WOMAN'S HOSPITAL, INC., priority 2014, published 2017).

Key:
Format in all cases: biochemical
BRSK1 = target: T1, BRSK1 (Homo sapiens, UniProt Q8TDC3); assay: Kinome profiling BRSK1; details: read-out: Inhibitory activity BRSK1; for inhibition at 0.1 µM: 100 nM
T1 sequence (Q8TDC3 1-778): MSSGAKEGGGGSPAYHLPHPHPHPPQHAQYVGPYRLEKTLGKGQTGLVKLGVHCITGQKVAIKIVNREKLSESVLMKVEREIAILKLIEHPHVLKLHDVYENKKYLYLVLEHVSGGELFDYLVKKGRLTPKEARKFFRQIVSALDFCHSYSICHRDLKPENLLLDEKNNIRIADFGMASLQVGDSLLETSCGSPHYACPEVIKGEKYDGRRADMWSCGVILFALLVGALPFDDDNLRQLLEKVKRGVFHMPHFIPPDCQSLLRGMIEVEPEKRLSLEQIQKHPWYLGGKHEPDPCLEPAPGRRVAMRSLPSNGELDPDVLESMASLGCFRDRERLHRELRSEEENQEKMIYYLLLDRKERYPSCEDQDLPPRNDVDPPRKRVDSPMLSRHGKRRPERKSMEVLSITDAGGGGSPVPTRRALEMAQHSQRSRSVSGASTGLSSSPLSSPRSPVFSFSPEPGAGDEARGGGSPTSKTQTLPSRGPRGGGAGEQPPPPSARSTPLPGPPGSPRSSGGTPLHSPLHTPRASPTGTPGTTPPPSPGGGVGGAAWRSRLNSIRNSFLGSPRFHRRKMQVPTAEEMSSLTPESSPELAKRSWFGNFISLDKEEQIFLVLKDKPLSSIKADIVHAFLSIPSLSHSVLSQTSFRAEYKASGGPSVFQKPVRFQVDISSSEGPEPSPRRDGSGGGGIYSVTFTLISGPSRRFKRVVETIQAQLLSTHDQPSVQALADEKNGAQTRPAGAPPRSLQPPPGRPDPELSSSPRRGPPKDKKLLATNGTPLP
Experimental: (§1) . The kinome-wide selectivity was determined following the methods previously reported by Mohedas et al., ACS Chem Biol 2013, 8, 1291-1302 and Sanvitale et al., PLoS One 2013, 8, e62721.

CK1-γ3 = CK1-γ3 (Homo sapiens, UniProt Q9Y6M4); assay: Kinome profiling CK1-γ3; details: read-out: Inhibitory activity CK1-γ3; for inhibition at 0.1 µM: 100 nM
Experimental: as §1

CHEK1 = target: T2, CHEK1 (Homo sapiens, UniProt O14757); assay: Kinome profiling CHEK1; details: read-out: Inhibitory activity CHEK1; for inhibition at 0.1 µM: 100 nM
T2 sequence (O14757 1-476): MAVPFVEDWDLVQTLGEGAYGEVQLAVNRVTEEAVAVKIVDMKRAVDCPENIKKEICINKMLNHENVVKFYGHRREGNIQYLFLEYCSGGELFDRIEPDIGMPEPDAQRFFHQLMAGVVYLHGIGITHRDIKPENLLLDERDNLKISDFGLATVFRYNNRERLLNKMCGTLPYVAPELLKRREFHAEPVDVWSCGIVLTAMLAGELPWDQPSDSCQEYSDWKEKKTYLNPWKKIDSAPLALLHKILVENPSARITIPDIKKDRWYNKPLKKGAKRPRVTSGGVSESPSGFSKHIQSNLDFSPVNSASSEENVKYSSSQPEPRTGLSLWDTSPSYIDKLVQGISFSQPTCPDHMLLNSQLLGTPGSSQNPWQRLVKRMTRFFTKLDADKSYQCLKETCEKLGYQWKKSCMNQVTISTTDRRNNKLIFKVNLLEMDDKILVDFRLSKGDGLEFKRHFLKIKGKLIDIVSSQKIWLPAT
Experimental: as §1

GSK3β = GSK3β (Homo sapiens, UniProt P49841); assay: Kinome profiling GSK3β; details: read-out: Inhibitory activity GSK3β; for inhibition at 0.1 µM: 100 nM
GSK3β, sequence (P49841 whole entry): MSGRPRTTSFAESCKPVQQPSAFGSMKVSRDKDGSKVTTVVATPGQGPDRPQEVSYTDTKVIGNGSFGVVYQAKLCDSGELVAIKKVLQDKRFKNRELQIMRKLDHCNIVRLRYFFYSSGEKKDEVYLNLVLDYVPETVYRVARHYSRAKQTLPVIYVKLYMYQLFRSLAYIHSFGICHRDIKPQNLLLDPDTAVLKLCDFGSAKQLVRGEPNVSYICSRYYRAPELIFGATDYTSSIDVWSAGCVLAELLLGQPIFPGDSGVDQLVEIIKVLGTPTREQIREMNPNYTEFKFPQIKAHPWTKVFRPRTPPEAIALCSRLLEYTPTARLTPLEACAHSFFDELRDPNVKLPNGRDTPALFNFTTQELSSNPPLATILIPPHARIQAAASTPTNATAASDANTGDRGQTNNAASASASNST
Experimental: as §1

MAPK1 = MAPK1 (Homo sapiens, UniProt P28482); assay: Kinome profiling MAPK1; details: read-out: Inhibitory activity MAPK1; for inhibition at 0.1 µM: 100 nM
MAPK1, sequence (P28482 whole entry): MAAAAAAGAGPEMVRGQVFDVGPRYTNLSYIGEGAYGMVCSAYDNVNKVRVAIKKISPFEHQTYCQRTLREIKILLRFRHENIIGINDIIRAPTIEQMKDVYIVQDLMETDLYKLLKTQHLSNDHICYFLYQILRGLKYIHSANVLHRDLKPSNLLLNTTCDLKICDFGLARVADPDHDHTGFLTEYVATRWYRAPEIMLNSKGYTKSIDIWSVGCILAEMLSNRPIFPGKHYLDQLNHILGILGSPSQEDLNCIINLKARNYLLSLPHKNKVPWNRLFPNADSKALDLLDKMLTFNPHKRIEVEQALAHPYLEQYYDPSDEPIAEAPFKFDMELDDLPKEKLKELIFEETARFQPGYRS
Experimental: as §1

MET = MET (Homo sapiens, UniProt P08581); assay: Kinome profiling MET; details: read-out: Inhibitory activity MET; for inhibition at 0.1 µM: 100 nM
MET, sequence (P08581 25-1390): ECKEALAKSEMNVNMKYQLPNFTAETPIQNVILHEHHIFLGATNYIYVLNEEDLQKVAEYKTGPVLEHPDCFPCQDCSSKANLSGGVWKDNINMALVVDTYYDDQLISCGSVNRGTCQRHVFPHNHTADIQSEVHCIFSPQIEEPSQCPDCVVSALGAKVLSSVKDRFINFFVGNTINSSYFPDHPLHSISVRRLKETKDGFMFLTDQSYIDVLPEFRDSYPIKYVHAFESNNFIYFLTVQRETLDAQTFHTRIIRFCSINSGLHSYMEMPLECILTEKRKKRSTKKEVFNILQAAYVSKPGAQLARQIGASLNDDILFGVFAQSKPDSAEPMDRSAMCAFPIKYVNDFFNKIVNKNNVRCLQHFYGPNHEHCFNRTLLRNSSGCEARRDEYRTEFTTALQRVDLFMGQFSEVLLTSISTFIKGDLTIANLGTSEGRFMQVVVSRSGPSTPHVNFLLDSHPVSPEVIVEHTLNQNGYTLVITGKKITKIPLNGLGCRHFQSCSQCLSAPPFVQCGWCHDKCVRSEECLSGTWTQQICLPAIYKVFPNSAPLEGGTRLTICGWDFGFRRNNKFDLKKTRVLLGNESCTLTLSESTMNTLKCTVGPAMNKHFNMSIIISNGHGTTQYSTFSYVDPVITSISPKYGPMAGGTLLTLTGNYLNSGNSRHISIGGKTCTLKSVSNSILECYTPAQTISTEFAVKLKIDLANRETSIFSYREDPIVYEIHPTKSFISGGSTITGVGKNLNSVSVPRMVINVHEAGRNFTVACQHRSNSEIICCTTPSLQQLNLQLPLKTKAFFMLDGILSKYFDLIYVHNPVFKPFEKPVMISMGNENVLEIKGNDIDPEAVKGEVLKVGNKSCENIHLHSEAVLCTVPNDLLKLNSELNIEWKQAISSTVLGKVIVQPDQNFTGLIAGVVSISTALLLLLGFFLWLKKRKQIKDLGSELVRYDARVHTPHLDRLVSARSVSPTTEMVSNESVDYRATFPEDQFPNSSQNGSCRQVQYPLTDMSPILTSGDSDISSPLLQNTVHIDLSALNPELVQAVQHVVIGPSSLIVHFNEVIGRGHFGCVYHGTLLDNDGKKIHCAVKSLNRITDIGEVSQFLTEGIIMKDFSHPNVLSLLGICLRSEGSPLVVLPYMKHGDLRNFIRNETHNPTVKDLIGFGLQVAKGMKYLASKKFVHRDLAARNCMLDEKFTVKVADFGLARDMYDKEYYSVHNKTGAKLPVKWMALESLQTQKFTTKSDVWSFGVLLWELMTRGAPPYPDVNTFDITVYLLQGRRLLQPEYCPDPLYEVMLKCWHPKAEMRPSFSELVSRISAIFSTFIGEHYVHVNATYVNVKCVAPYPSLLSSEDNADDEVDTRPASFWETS
Experimental: as §1

LTK = LTK (Homo sapiens, UniProt P29376); assay: Kinome profiling LTK; details: read-out: Inhibitory activity LTK; for inhibition at 0.1 µM: 100 nM
LTK, sequence (P29376 17-864): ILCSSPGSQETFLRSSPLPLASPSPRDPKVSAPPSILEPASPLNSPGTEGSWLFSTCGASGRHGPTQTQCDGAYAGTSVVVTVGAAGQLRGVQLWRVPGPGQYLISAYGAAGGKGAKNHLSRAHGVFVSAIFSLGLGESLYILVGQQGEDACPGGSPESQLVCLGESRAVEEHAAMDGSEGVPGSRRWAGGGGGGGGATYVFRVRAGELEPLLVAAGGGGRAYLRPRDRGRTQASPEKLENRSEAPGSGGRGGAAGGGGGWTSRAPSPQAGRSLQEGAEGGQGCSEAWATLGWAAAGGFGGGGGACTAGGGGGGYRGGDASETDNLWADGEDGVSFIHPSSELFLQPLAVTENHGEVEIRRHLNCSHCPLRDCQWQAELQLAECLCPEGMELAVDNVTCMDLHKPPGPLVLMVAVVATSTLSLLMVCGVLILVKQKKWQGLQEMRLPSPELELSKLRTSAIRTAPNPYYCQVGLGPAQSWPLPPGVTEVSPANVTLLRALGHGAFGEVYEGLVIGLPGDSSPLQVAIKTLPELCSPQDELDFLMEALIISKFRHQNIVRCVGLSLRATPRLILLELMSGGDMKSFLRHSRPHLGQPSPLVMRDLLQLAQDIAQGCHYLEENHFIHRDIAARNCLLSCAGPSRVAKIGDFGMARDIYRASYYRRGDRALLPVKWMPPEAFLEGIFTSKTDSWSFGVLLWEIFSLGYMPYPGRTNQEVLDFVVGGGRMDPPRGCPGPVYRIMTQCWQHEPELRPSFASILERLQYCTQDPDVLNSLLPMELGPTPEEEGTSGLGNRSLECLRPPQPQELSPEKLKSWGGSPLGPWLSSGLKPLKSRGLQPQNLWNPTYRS
Experimental: as §1

CDK4/cyclinD = CDK4/cyclinD (Homo sapiens, UniProt P11802); assay: Kinome profiling CDK4/cyclinD; details: read-out: Inhibitory activity CDK4/cyclinD; for inhibition at 0.1 µM: 100 nM
CDK4/cyclinD, sequence (P11802 whole entry): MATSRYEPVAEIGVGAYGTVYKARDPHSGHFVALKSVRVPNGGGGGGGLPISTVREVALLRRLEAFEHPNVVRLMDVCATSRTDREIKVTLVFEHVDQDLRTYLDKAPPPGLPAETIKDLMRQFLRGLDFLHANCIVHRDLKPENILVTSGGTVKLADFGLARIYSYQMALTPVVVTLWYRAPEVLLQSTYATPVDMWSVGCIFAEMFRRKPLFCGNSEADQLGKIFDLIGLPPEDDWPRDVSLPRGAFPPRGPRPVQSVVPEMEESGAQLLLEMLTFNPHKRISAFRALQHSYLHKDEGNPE
CDK4/cyclinD, sequence (P24385 whole entry partner): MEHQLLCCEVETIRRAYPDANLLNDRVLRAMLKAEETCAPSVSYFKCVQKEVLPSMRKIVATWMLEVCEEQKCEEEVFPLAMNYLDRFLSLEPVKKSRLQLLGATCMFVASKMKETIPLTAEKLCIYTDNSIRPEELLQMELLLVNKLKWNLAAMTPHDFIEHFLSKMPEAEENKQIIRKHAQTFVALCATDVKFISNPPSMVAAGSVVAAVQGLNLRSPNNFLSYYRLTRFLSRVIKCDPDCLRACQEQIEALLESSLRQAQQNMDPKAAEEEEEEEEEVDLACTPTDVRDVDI
Experimental: as §1

ARK5 = target: T3, ARK5 (Homo sapiens, UniProt O60285); assay: Kinome profiling ARK5; details: read-out: Inhibitory activity ARK5; for inhibition at 0.1 µM: 100 nM
T3 sequence (O60285 1-661): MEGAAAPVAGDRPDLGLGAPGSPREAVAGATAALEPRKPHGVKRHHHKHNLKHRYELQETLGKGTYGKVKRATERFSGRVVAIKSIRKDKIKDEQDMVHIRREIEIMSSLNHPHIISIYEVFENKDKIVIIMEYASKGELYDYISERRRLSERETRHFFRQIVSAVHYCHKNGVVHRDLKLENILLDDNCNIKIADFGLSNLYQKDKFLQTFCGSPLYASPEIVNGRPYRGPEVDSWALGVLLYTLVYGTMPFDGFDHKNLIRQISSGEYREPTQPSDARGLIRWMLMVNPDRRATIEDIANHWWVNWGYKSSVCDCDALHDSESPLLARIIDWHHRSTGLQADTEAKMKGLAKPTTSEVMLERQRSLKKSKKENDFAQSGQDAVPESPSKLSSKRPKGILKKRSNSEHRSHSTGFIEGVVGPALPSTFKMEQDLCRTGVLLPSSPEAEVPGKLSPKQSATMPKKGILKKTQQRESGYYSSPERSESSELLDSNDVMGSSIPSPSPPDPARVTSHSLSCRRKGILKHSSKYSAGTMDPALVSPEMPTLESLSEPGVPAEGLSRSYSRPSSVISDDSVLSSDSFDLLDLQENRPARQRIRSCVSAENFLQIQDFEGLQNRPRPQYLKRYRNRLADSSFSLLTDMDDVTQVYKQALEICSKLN
Experimental: as §1

BRAF = BRAF (Homo sapiens, UniProt P15056); assay: Kinome profiling BRAF; details: read-out: Inhibitory activity BRAF; for inhibition at 0.1 µM: 100 nM
BRAF, sequence (P15056 whole entry): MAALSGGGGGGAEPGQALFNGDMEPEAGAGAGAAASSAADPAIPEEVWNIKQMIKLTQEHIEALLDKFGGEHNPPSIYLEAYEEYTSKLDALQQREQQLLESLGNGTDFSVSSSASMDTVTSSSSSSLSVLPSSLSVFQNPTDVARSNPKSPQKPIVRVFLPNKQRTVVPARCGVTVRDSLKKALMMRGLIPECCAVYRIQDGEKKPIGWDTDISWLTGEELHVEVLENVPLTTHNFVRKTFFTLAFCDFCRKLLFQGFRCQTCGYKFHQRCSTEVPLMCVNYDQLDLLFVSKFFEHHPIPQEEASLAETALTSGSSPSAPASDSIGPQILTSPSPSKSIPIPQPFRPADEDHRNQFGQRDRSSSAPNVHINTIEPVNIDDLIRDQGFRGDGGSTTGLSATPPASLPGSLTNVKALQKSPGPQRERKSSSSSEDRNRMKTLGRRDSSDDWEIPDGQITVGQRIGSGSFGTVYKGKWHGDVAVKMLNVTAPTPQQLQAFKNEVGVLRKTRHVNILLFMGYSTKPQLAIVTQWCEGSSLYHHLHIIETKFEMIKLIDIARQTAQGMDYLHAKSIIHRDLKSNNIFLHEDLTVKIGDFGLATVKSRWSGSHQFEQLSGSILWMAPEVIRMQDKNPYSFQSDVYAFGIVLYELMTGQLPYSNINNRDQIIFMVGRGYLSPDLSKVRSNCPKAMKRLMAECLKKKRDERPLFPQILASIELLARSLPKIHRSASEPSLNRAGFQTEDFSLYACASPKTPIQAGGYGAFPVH
Experimental: as §1

PKC-β1 = PKC-β1 (Homo sapiens, UniProt P05771); assay: Kinome profiling PKC-β1; details: read-out: Inhibitory activity PKC-β1; for inhibition at 0.1 µM: 100 nM
PKC-β1, sequence (P05771 whole entry): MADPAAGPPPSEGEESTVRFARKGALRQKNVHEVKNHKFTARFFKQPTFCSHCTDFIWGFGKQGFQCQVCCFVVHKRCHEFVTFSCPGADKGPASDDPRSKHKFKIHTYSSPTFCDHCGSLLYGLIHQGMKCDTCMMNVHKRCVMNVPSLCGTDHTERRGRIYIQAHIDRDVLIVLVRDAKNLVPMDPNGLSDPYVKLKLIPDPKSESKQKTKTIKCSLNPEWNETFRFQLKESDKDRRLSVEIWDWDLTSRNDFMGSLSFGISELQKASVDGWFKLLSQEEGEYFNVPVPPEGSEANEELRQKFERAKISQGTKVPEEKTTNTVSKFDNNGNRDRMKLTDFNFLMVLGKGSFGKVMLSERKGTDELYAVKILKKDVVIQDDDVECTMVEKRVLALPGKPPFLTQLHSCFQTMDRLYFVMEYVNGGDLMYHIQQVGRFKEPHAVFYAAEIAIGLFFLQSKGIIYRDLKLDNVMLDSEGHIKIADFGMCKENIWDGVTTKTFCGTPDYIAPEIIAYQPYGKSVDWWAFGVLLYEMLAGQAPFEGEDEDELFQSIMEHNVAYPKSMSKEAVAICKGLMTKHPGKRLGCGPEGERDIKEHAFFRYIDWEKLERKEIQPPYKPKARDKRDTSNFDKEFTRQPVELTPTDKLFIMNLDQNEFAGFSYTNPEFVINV
Experimental: as §1

Row | SMILES | inhibition at 0.1 µM (BRSK1) [%] | inhibition at 1 µM (BRSK1) [%] | inhibition at 0.1 µM (CK1-γ3) [%] | inhibition at 1 µM (CK1-γ3) [%] | inhibition at 0.1 µM (CHEK1) [%] | inhibition at 1 µM (CHEK1) [%] | inhibition at 0.1 µM (GSK3β) [%] | inhibition at 1 µM (GSK3β) [%] | inhibition at 0.1 µM (MAPK1) [%] | inhibition at 1 µM (MAPK1) [%] | inhibition at 0.1 µM (MET) [%] | inhibition at 1 µM (MET) [%] | inhibition at 0.1 µM (LTK) [%] | inhibition at 1 µM (LTK) [%] | inhibition at 0.1 µM (CDK4/cyclinD) [%] | inhibition at 1 µM (CDK4/cyclinD) [%] | inhibition at 0.1 µM (ARK5) [%] | inhibition at 1 µM (ARK5) [%] | inhibition at 0.1 µM (BRAF) [%] | inhibition at 1 µM (BRAF) [%] | other results
1 | COc1cc(-c2cc(-c3ccc(N4CCNCC4)cc3)cnc2C)cc(OC)c1OC [Compound 10, 1-(4-(6-methyl-5-(3,4,5-trimethoxyphenyl)pyridin-3-yl)phenyl)piperazine] | 1 | 1 | 1 | 10 | 4 | -3 | 2 | 4 | 1 | 1 | -1 | 2 | 4 | 10 | -3 | 2 | 1 | 1 | 0 | 1 | inhibition at 0.1 µM (PKC-β1): 0%; inhibition at 1 µM (PKC-β1): 1%
2 | COc1cc(-c2cc(-c3ccc(N4CCNCC4)cc3)cnc2N)cc(OC)c1OC [Compound 15, 5-(4-(piperazin-1-yl)phenyl)-3-(3,4,5-trimethoxyphenyl)pyridin-2-amine] | 0 | 0 | 7 | 30 | 2 | 6 | 0 | -1 | 3 | 6 | 7 | 21 | 13 | 60 | 1 | 3 | 2 | 8 | 8 | 27 | inhibition at 0.1 µM (PKC-β1): 0%; inhibition at 1 µM (PKC-β1): 0%
